Experimental data reported in US9221822B2, “Thiazolopyrimidine modulators as immunosuppressive agents” (Katholieke Universiteit Leuven, K.U.Leuven R&D, priority 2009, dated 2015).

System: Human peripheral blood mononuclear cells (PBMCs) as Responder cells, RPMI 1788 Stimulator cells
Assay: Mixed Lymphocyte Reaction (MLR) test
Format: cell-based
Conditions: Homo sapiens, RPMI-1788, lowest concentration giving 50% inhibition of the MLR; 6 days coculture, 3H-thymidine incorporation
Protocol: Human peripheral blood mononuclear cells (PBMCs) were isolated from buffy coats, obtained from healthy blood donors by Ficoll (Lymphoprep, Axis-Shield PoC AS, Oslo, Norway) density-gradient centrifugation. The cells at the Ficoll-plasma interface were washed three times and used as “Responder” cells. RPMI 1788 (ATCC, N^o CCL-156) cells were treated with mitomycin C (Kyowa, Nycomed, Brussel, Belgium) and used as “Stimulator” cells. Responder cells (0.12×10^6), Stimulator cells (0.045×10^6) and compounds (in different concentrations) were cocultured for 6 days in RPMI 1640 medium (BioWhittaker, Lonza, Belgium) supplemented with 10% fetal calf serum, 100 U/ml Geneticin (Gibco, LifeTechnologies, UK). Cells were cultured in triplicate in flat-bottomed 96-well microtiter tissue culture plates (TTP, Switzerland). After 5 days, cells were pulsed with 1 μCi of methyl-^3H thymidine (MP Biomedicals, USA), harvested 18 h later on glass filter paper and counted. Proliferation values were expressed as counts per minute (cpm), and converted to % inhibition with respect to a blank MLR test (identical but without added compound). […]

Going from `C[S+]([O-])c1nc2c(N3CCN(C(=O)COc4ccc(Cl)cc4)CC3)nc(N)nc2s1` (centres unmarked) [Example 126, 5-amino-7-[4-(4-chlorophenoxyacetyl)piperazin-1-yl]-2-methylsulfinyl-thiazolo[5,4-d]pyrimidine] to `CSc1nc2c(N3CCN(C(=O)COc4ccc(Cl)cc4)CC3)nc(N)nc2s1` [Example 115, 5-amino-7-[4-(4-chlorophenoxyacetyl)piperazin-1-yl]-2-methylthio-thiazolo[5,4-d]pyrimidine], the IC50 rises from 2650 nM to over 10000 nM. The first is the more potent here.

`N#Cc1ccc(NC(=O)N2CCN(c3nc(N)nc4sc(-c5cccnc5)nc34)CC2)cc1` [Example 279, 4-(5-amino-2-(pyridin-3-yl)thiazolo[5,4-d]pyrimidin-7-yl)-N-(4-cyanophenyl)piperazine-1-carboxamide] and `COc1ccc(CNC(=O)N2CCN(c3nc(N)nc4sc(-c5cccnc5)nc34)CC2)cc1` [Example 278, 4-(5-amino-2-(pyridin-3-yl)thiazolo[5,4-d]pyrimidin-7-yl)-N-(4-methoxybenzyl)piperazine-1-carboxamide] are within 1.5-fold of each other in IC50: 100 nM for the first, 80 nM for the second.

Compared with `Nc1nc(N2CCN(CCOc3ccccc3)CC2)c2nc(CCc3ccc(F)cc3)sc2n1` [Example 149, 5-amino-2-[2-(4-fluorophenyl)ethyl]-7-(4-(2-phenoxyethyl)piperazin-1-yl)-thiazolo[5,4-d]pyrimidine], `Nc1nc(N2CCN(CCOc3ccccc3)CC2)c2nc(CCc3ccc(F)cc3)oc2n1` [Example 197, 5-amino-2-[2-(4-fluorophenyl)ethyl]-7-(4-(2-phenoxyethyl)piperazin-1-yl)-oxazolo[5,4-d]pyrimidine] is 3-fold lower in IC50: 5760 nM for the first, 1950 nM for the second.

`Nc1nc(N2CCN(C(=O)COc3ccc(Cl)cc3)CC2)c2nc(Cc3ccc(F)cc3)sc2n1` [Example 46, 1-(4-(5-amino-2-(4-fluorobenzyl)thiazolo[5,4-d]pyrimidin-7-yl)piperazin-1-yl)-2-(4-chlorophenoxy)ethanone] and `Nc1nc(N2CCN(C(=O)COc3ccc(Cl)cc3)CC2)c2nc(CCCCc3ccc(F)cc3)sc2n1` [Example 292, 1-(4-(5-amino-2-(4-(4-fluorophenyl)butyl)thiazolo[5,4-d]pyrimidin-7-yl)piperazin-1-yl)-2-(4-chlorophenoxy)ethanone] are within 1.5-fold of each other in IC50: 700 nM for the first, 920 nM for the second.

Compared with `Nc1nc(N2CCN(C(=O)COc3ccc(Cl)cc3)CC2)c2nc(CCc3ccccc3)sc2n1` [Example 118, 5-amino-7-[4-(4-chlorophenoxyacetyl)piperazin-1-yl]-2-(2-phenylethyl)thiazolo[5,4-d]pyrimidine], `Nc1nc(N2CCN(C(=O)COc3ccc(Cl)cc3)CC2)c2nc(CCc3ccc(Br)cc3)sc2n1` [Example 299, 1-(4-(5-amino-2-(4-bromophenethyl)thiazolo[5,4-d]pyrimidin-7-yl)piperazin-1-yl)-2-(4-chlorophenoxy)ethanone] is 3.6-fold higher in IC50: 860 nM for the first, 3110 nM for the second. The first is the more potent here.

First: Nc1nc(N2CCN(C(=O)COc3ccc(Cl)cc3)CC2)c2nc(-c3ccc(F)cc3)oc2n1 [Example 169, 1-(4-(5-amino-2-(4-fluorophenyl)oxazolo[5,4-d]pyrimidin-7-yl)piperazin-1-yl)-2-(4-chlorophenoxy)ethanone]
Second: Nc1nc(N2CCN(C(=O)COc3ccc(Cl)cc3)CC2)c2nc(-c3ccc(C(F)(F)F)cc3)[nH]c2n1 [Example 394, 1-(4-(2-amino-8-(4-(trifluoromethyl)phenyl)-9H-purin-6-yl)piperazin-1-yl)-2-(4-chlorophenoxy)ethanone]
The IC50 of the first is 4.8-fold higher: 3000 nM for the first, 630 nM for the second.

Going from `Cc1cccc(NC(=O)N2CCN(c3nc(N)nc4sc(-c5ccccc5)nc34)CC2)c1` [Example 220, 4-(5-amino-2-phenylthiazolo[5,4-d]pyrimidin-7-yl)-N-m-tolylpiperazine-1-carboxamide] to `Cc1ccc(NC(=O)N2CCN(c3nc(N)nc4sc(-c5ccc(F)cc5)nc34)CC2)cc1` [Example 42, 4-(5-amino-2-(4-fluorophenyl)-thiazolo[5,4-d]pyrimidin-7-yl)-N-p-tolylpiperazine-1-carboxamide], the IC50 rises from 170 nM to 700 nM (4.1-fold). The first is the more potent here.

Going from `Cc1cccc(OCC(=O)N2CCN(c3nc(N)nc4sc(-c5ccco5)nc34)CC2)c1` [Example 210, 1-(4-(5-amino-2-(furan-2-yl)thiazolo[5,4-d]pyrimidin-7-yl)piperazin-1-yl)-2-(m-tolyloxy)ethanone] to `Nc1nc(N2CCN(C(=O)COc3ccc(Cl)cc3)CC2)c2nc(CCc3cccs3)sc2n1` [Example 154, 5-amino-2-(2-thiophen-2-ylethyl)-7-(4-[2-(4-chloro-phenoxy)acetyl]piperazin-1-yl)thiazolo[5,4-d]pyrimidine], the IC50 rises from 72 nM to 790 nM (11-fold). The first is the more potent here.

Going from `COc1ccc(OCC(=O)N2CCN(c3nc(N)nc4sc(CCCc5ccc(F)cc5)nc34)CC2)cc1` [Example 291, 1-(4-(5-amino-2-(3-(4-fluorophenyl)propyl)thiazolo[5,4-d]pyrimidin-7-yl)piperazin-1-yl)-2-(4-methoxyphenoxy)ethanone] to `CC(=O)c1ccc(OCC(=O)N2CCN(c3nc(N)nc4sc(CCc5ccc(F)cc5)nc34)CC2)cc1` [Example 227, 2-(4-acetylphenoxy)-1-(4-(5-amino-2-(4-fluorophenethyl)thiazolo[5,4-d]pyrimidin-7-yl)piperazin-1-yl)ethanone], the IC50 falls from 1110 nM to 610 nM (1.8-fold).

`Nc1nc(N2CC[C@@H](NC(=O)c3ccc(Cl)cc3)C2)c2nc(CCc3ccc(F)cc3)sc2n1` [Example 144, 5-amino-2-[2-(4-fluorophenyl)ethyl]-7-(3-(R)-(4-chlorobenzoylamino)-pyrrolidin-1-yl)-thiazolo[5,4-d]pyrimidine] and `Nc1nc(N2CC[C@@H](NC(=O)c3ccc(Cl)cc3)C2)c2cc(-c3ccc(F)cc3)sc2n1` [Example 341, (R)—N-(1-(2-amino-6-(4-fluorophenyl)thieno[2,3-d]pyrimidin-4-yl)pyrrolidin-3-yl)-4-chlorobenzamide] are within 1.5-fold of each other in IC50: 5130 nM for the first, 7230 nM for the second.

Going from `N#Cc1ccc(NC(=O)N2CCN(c3nc(N)nc4sc(CCc5ccc(F)cc5)nc34)CC2)cc1` [Example 229, 4-(5-amino-2-(4-fluorophenethyl)thiazolo[5,4-d]pyrimidin-7-yl)-N-(4-cyanophenyl)piperazine-1-carboxamide] to `Nc1nc(N2CCN(C(=O)OCc3ccccc3)CC2)c2nc(-c3ccc(F)cc3)sc2n1` [Example 40, benzyl-4-(5-amino-2-(4-fluorophenyl)thiazolo[5,4-d]pyrimidin-7-yl)piperazine-1-carboxylate], the IC50 rises from 2660 nM to 4900 nM (1.8-fold).

First: Nc1nc(N2CCN(C(=O)c3cccc4ccccc34)CC2)c2nc(-c3ccc(F)cc3)[nH]c2n1 [Example 406, (4-(2-amino-8-(4-fluorophenyl)-9H-purin-6-yl)piperazin-1-yl)(naphthalen-1-yl)methanone]
Second: Nc1nc(N2CCN(C(=O)COc3ccc(F)cc3)CC2)c2cc(-c3ccccc3)sc2n1 [Example 370, 1-(4-(2-amino-6-phenylthieno[2,3-d]pyrimidin-4-yl)piperazin-1-yl)-2-(4-fluorophenoxy)ethanone]
The IC50 of the first is 97-fold higher: 6400 nM for the first, 66 nM for the second. The second is the more potent here.

Compared with `CCCSc1nc2c(N3CCN(C(=O)COc4ccc(Cl)cc4)CC3)nc(N)nc2[nH]1` [Example 425, 1-(4-(2-amino-8-(propylthio)-9H-purin-6-yl)piperazin-1-yl)-2-(4-chlorophenoxy)ethanone], `O=C(COc1ccc(Cl)cc1)N1CCN(c2nc(-c3ccccc3)nc3sc(-c4ccc(F)cc4)cc23)CC1` [Example 352, 2-(4-chlorophenoxy)-1-(4-(6-(4-fluorophenyl)-2-phenylthieno[2,3-d]pyrimidin-4-yl)piperazin-1-yl)ethanone] is higher in IC50: 1020 nM for the first, over 10000 nM for the second. The first is the more potent here.
